Results reported in patent US9598365B2, “Method for synthesizing cycloalkanyl[b]indoles, cycloalkanyl[b]benzofurans, cycloalkanyl[b]benzothiophenes, compounds and methods of use” (Trustees of Dartmouth College, priority 2012, dated 2017).

Molecular target: T1, hHK2 (Homo sapiens, UniProt P52789)
T1 sequence (P52789 1-917): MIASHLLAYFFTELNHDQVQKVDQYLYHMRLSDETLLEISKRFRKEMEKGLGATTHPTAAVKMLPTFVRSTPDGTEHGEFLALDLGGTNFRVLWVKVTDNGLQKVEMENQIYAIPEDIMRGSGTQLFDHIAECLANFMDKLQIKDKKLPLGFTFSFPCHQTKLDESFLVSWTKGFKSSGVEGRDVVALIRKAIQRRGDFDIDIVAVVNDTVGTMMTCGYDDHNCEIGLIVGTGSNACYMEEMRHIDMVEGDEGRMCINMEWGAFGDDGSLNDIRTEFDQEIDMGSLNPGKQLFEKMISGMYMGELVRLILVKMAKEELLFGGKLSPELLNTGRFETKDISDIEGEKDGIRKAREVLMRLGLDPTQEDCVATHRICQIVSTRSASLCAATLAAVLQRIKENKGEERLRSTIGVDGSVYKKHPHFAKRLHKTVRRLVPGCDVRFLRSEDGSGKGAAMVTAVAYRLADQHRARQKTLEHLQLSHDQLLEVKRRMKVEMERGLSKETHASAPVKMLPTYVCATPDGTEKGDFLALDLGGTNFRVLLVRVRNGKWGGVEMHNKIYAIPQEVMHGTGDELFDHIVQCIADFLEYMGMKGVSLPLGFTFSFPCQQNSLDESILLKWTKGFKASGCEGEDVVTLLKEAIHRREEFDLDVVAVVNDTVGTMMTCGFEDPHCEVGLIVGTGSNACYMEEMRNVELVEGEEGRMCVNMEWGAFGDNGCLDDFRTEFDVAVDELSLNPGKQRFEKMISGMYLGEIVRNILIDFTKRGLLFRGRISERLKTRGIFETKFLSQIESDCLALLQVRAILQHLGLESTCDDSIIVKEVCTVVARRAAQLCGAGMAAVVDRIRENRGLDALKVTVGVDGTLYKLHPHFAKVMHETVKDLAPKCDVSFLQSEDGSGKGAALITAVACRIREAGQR
Assay: Hexokinase 2 inhibitor, hHK2 ADP-FP
Assay type: biochemical
Text: Selected compounds of this invention were screened for K-Ras Wnt synthetic lethal, anti-angiogenic activity, Wnt pathway modulatory activity, insulin and GLP-1 secretion modulatory activity, GPR119 receptor agonist activity, mGlu2R antagonist activity, CGRP receptor antagonist activity, Apelin receptor agonist activity and hexokinase 2 inhibitory activity using the PD^2 and TD^2 Screening Panel (Eli Lilly & Company). See Lee, et al. (2011) J. Biomol. Screen. 16:588-602.

inhibition at 20 µM: 5.5%
SMILES: CC1(C)c2c([nH]c3ccc(Cl)cc23)C2C=CC1C2 (stereo not shown) [Compound 11s]
